Laboratory results: patent US20040024024A1, “Aromatic sulfone hydroxamates and their use as protease inhibitors” (priority 2001, published 2004)
Each block holds one compound with its values, some of them ahead of it.

Key:
Assay in all cases: In vitro MMP inhibition, IC50 determination (fluorogenic substrate I)
Format in all cases: biochemical
[1] = biological target: T1, Human recombinant MMP-13 (Homo sapiens, UniProt P45452)
T1 construct: made in house; host or cells: baculovirus / insect cells
Method in brief: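 Fluorescence at 415 nm (excitation 328 nm) reports Gly-Leu cleavage of 4 μM quenched methoxycoumarin peptide substrate I. Human recombinant MMP-13, activated by trypsin or APMA, was incubated at room temperature with varied inhibitor concentrations in pH 7.5 Tris/NaCl/CaCl2 buffer; IC50 derived from reduced fluorescence.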

[2] = biological target: T2, Human recombinant MMP-14 (Homo sapiens, UniProt P50281)
T2 construct: The catalytic domain enzyme was expressed in E. coli inclusion bodies, solubilized in urea; made in house
Description: (§1) Several hydroxamates and salts thereof were analyzed in in vitro assays to determine their ability to inhibit the MMP cleavage of peptide substrates. Inhibition (Ki) and IC50 constants were calculated from the assayed hydroxamate-MMP interactions.
(§2) Human recombinant MMP-1, MMP-2, MMP-9, MMP-13, and MMP-14 were used in this assay. All enzymes were prepared in Assignee's laboratories following usual laboratory procedures. Protocols for the preparation and use of these enzymes are available in the scientific literature. See, e.g., Enzyme Nomenclature (Academic Press, San Diego, Calif., 1992) (and the citations therein). See also, Frije et al., J. Biol. Chem., 26(24), 16766-73 (1994).
The MMP-14 full length cDNA was provided by Dr. Gregory Goldberg of Washington University (St. Louis, Mo.). The catalytic domain enzyme was expressed in E. coli inclusion bodies, solubilized in urea, purified on a preparative […] reverse phase HPLC column, and then refolded in the presence of zinc acetate and purified for use.
(§3) All MMPs were activated using 4-aminophenylmercuric acetate (“APMA”, Sigma Chemical, St. Louis, Mo.) or trypsin. MMP-9 also was activated using human recombinant MMP-3 (purified in Assignee's laboratory following standard cloning and purification techniques).
(§4) Two fluorogenic, methoxycoumarin-containing polypeptide substrates were used in the MMP inhibition assays:
(§5) MCA-ProLeuGlyLeuDpaAlaArgNH2 (I)
(§6) Here, “Dpa” is 3-(2,4-dinitrophenyl)-L-2,3-diaminopropionyl group, and “MCA” is 7-methoxycoumarin-4-yl acetyl. Substrate (I) was purchased from Baychem (Redwood City, Calif.), and substrate II was prepared Assignee's laboratory. Substrate I was used in the IC50 determination assays, while substrate II was used in the Ki determination assays. In the absence of MMP inhibitory activity, either substrate is cleaved at the Gly-Leu peptide bond. This cleavage separates the highly fluorogenic peptide from the 2,4-dinitrophenyl quencher, thus resulting in increase of fluorescent intensity.
(§7) The stock solutions of the assayed hydroxamates (or salts thereof) were prepared in 1% dimethyl sulfoxide (DMSO). These stock solutions were diluted in Buffer A (100 mM Tris-HCl, 100 mM NaCl, 10 mM CaCl2, 0.05% polyoxyethylene 23 lauryl ether, pH 7.5) to obtain solutions with different hydroxamate concentrations, i.e., assay solutions with different concentrations of the assayed MMP inhibitory compound. The experiment controls contained the same amount of Buffer A/DMSO as the assayed sample, but contained no hydroxamate (or salt thereof).
(§8) The assays from which the IC50 determinations were made were performed as follows. The MMPs were activated with either trypsin or APMA (4-aminophenylmercuric acetate, Sigma Chemical, St. Louis, Mo.). The assayed hydroxamate samples were, incubated in Microfluorrm White Plates (Dynatech, Chantilly, VA) and analyzed on a Perkin Elmer L550 plate reader (Norwalk, Conn.). The excitation wavelength was 328 nm, and the emission wavelength—415 nm. All samples (assayed hydroxamates and controls) were incubated in separate plates at room temperature in the presence of 4 μM of MMP substrate (I). As stated in the previous paragraph, samples containing varying concentrations of the same assayed hydroxamate were prepared. Inhibition was measured as a reduction in fluorescent intensity as a function of MMP inhibitor concentration.

[3] = biological target: T3, Human recombinant MMP-9 (Homo sapiens, UniProt P14780)
T3 construct: made in house; host or cells: MMP-9-transfected HT1080 cells (spent media)
T3 sequence (P14780 107-707 limits assumed): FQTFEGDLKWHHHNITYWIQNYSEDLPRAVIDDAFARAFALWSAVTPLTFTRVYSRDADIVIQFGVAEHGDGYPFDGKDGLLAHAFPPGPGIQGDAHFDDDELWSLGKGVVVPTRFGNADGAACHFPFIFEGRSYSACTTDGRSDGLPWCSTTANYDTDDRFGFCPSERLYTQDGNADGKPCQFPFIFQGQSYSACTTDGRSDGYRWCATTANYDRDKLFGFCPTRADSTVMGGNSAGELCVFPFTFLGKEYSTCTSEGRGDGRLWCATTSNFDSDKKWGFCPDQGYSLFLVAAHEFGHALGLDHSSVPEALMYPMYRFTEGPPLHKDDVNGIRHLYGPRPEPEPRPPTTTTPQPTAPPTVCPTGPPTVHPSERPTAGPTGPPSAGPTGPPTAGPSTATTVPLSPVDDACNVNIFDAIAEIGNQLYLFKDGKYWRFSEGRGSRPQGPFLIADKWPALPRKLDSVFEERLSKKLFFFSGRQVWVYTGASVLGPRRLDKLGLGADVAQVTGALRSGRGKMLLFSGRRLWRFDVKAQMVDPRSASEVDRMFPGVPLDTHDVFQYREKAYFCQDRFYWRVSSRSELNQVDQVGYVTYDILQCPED
Description: as §1, §2
The MMP-9 proenzyme was purified by gelatin Sepharose chromatography from spent media of MMP-9-transfected HT1080 cells provided by Dr. Howard Welgus of Washington University (St. Louis, Mo.).
as §3, §4, §5, §6, §7, §8

[4] = biological target: T4, Human recombinant MMP-2 (Homo sapiens, UniProt P08253)
T4 construct: made in house; host or cells: MMP-2-transfected p2AHT2 cells
T4 sequence (P08253 110-660): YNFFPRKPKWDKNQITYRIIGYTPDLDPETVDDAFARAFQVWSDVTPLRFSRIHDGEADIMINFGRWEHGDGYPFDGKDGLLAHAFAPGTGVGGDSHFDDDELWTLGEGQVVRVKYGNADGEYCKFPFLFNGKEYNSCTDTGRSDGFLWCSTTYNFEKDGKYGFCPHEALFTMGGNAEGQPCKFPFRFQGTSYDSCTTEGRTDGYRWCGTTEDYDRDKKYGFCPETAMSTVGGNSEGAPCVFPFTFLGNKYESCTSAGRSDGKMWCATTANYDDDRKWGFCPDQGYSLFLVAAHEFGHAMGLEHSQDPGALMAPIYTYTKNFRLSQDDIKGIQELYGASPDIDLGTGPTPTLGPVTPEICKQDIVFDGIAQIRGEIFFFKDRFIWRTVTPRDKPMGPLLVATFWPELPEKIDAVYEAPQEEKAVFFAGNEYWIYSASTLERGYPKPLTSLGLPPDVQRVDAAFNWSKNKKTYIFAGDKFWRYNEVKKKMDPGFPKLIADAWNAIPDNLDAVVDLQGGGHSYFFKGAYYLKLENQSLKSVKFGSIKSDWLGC
Method in brief: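 APMA- or trypsin-activated recombinant MMP-2 was incubated at room temperature with serial inhibitor dilutions in Tris buffer pH 7.5 (100 mM NaCl, 10 mM CaCl2, 0.05% Brij), with DMSO from 1% stocks, and 4 μM substrate I. Cleavage was read by fluorescence at 328/415 nm; IC50 was taken from the loss of fluorescence versus inhibitor concentration.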

[5] = biological target: T5, Human recombinant MMP-1 (Homo sapiens, UniProt P03956)
T5 construct: made in house; host or cells: MMP-1-transfected HT-1080 cells (spent media)
T5 sequence (P03956 100-469): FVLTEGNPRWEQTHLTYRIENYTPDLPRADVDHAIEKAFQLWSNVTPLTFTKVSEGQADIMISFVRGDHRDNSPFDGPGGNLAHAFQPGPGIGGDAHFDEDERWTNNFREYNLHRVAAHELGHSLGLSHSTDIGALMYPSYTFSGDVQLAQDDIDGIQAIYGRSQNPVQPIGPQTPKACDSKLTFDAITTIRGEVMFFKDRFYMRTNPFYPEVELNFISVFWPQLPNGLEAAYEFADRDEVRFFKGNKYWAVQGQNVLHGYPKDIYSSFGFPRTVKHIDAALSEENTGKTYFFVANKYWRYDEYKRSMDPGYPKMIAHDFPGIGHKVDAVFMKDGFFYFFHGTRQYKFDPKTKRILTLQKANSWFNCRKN
Description: as §1, §2
The MMP-1 proenzyme was purified from the spent media of MMP-1-transfected HT-1080 cells provided by Dr. Harold Welgus of Washington University (St. Louis, Mo.). The protein was purified on a zinc chelating column.
as §3, §4, §5, §6, §7, §8

[6] = value outside parentheses (Ki in parenthesis)
[7] = substrate (I) 4 μM, room temperature, values not in parenthesis

- IC50 ([1]; value outside parenthesis): 1.3 nM
- IC50 ([2]; value outside parenthesis): > 10000 nM
- IC50 ([3]; value outside parenthesis): 285 nM
- IC50 ([4]; value outside parenthesis): 6.9 nM
- IC50 ([5]; value outside parenthesis): > 10000 nM
Structure (SMILES): O=C(NO)C1(S(=O)(=O)c2ccc(OCCCc3nc(-c4cccc([N+](=O)[O-])c4)no3)cc2)CCOCC1 [Example 210]

- IC50 [1, 6]: 5 nM
- IC50 [2, 6]: 600 nM
- IC50 [3, 6]: 45 nM
- IC50 [4, 6]: 5 nM
- IC50 [5, 6]: > 10000 nM
Structure (SMILES): COC(C)(C)CCOc1ccc(S(=O)(=O)C2(C(=O)NO)CCOCC2)cc1 [Example 473]

- IC50 ([1]; value outside parenthesis): 1.8 nM
- IC50 ([2]; value outside parenthesis): > 10000 nM
- IC50 ([3]; value outside parenthesis): 391 nM
- IC50 ([4]; value outside parenthesis): 13.2 nM
- IC50 ([5]; value outside parenthesis): 1160 nM
Structure (SMILES): O=C(NO)C1(S(=O)(=O)c2ccc(OCCCc3nnc(-c4ccc(Cl)cc4)o3)cc2)CCOCC1 [Example 260]

- IC50 [1, 7]: 0.2 nM
- IC50 [2, 7]: > 10000 nM
- IC50 [3, 7]: 9370 nM
- IC50 [4, 7]: 83.9 nM
- IC50 [5, 7]: > 10000 nM
Structure (SMILES): COc1ccc(/C(C#N)=C/CCCOc2ccc(S(=O)(=O)C3(C(=O)NO)CCOCC3)cc2)cc1 [Example 27, 4-[[4-[[(4Z)-5-cyano-5-(4-methoxyphenyl)-4-pentenyl]oxy]phenyl]sulfonyl]tetrahydro-N-hydroxy-2H-pyran-4-carboxamide]

- IC50 ([1]; value outside parenthesis): 3.8 nM
- IC50 ([3]; value outside parenthesis): 3270 nM
Structure (SMILES): O=C1CN(c2ccccc2)C(=O)N1CCCOc1ccc(S(=O)(=O)C2(C(=O)NO)CCOCC2)cc1 [Example 263]

- IC50 ([2]; value outside parentheses): 967 nM
- IC50 ([3]; value outside parentheses): 115 nM
- IC50 ([4]; value outside parentheses): 26.4 nM
- IC50 ([5]; value outside parentheses): > 10000 nM
Structure (SMILES): O=C(NO)C1(S(=O)(=O)c2ccc(OCCOCc3cccnc3)cc2)CCOCC1 [Example 518]

- IC50 ([1]; value outside parenthesis): 5.2 nM
- IC50 ([2]; value outside parenthesis): > 10000 nM
- IC50 ([3]; value outside parenthesis): 4020 nM
- IC50 ([5]; value outside parenthesis): > 10000 nM
Structure (SMILES): O=C1CN(c2ccccc2)C(=O)N1CCCOc1ccc(S(=O)(=O)C2(C(=O)NO)CCOCC2)cc1 [Example 174]

- IC50 ([1]; value outside parentheses): 0.6 nM
- IC50 ([2]; value outside parentheses): 4130 nM
- IC50 ([3]; value outside parentheses): 413 nM
- IC50 ([4]; value outside parentheses): 0.8 nM
Structure (SMILES): O=C(Cc1cccs1)NCCOc1ccc(S(=O)(=O)C2(C(=O)NO)CCOCC2)cc1 [Example 617]

- IC50 ([2]; value outside parentheses): > 10000 nM
- IC50 ([3]; value outside parentheses): 138 nM
- IC50 ([4]; value outside parentheses): 34.7 nM
- IC50 ([5]; value outside parentheses): > 10000 nM
Structure (SMILES): O=C(NO)C1(S(=O)(=O)c2ccc(OCCOCc3cccnc3)cc2)CCOCC1 [Example 517]

- IC50 ([1]; value outside parentheses): 0.41 nM
- IC50 ([3]; value outside parentheses): 47.1 nM
- IC50 ([4]; value outside parentheses): 3.91 nM
- IC50 ([5]; value outside parentheses): > 10000 nM
Structure (SMILES): CC(=O)c1ccc(OCCOc2ccc(S(=O)(=O)C3(C(=O)NO)CCOCC3)cc2)cc1 [Example 659]

- IC50 [1, 6]: 0.5 nM
- IC50 [2, 6]: > 10000 nM
- IC50 [3, 6]: > 10000 nM
- IC50 [4, 6]: 6.5 nM
Structure (SMILES): COc1ccc(SCCCCOc2ccc(S(=O)(=O)C3(C(=O)NO)CCOCC3)cc2)cc1 [Example 429]
